Our source for the viability, T/C values is PubChem BioAssay AID1963860 (Molecular Pharmacology Branch, DTP, NCI, 2024).
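Note: spheroids exposed to agents for 7 days.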

In the first test the test system is CN0375-F725-PDC KRAS spheroid viability. As to the kind of experiment: Anticancer human tumor CN0375-F725-PDC patient-derived colon carcinoma cell line growth inhibition [KRAS2]. To be noted: second compound 3.16 µM; first compound 0.316 µM; stronger effect = lower value; spheroids with HUVEC and MSC. The essentials: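 KRAS-mutant tumor cells were grown as spheroids with HUVEC endothelial cells and human MSCs as stroma. Targeted agents were tested alone and with KRAS pathway inhibitors. Doses started at or near clinical Cmax, or 10 microM, descending half-log.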
Regarding `COc1cc2nccc(Oc3ccc(NC(=O)C4(C(=O)Nc5ccc(F)cc5)CC4)cc3)c2cc1OC` + C=CC(=O)N1CCN(c2nc(=O)n(-c3c(C)ccnc3C(C)C)c3nc(-c4c(O)cccc4F)c(F)cc23)C(C)C1, the viability, T/C was 96.9%.

The same test, now with this note: second compound 3.16 µM; first compound 1 µM; stronger effect = lower value; spheroids with HUVEC and MSC.
Turning to `COc1cc(Nc2ncc3c(n2)-c2ccc(Cl)cc2C(c2c(F)cccc2OC)=NC3)ccc1C(=O)O` + COc1cc2nc(C)nc(NC(C)c3cc(N)cc(C(F)(F)F)c3)c2cc1OC1CCOC1, the viability, T/C is 79%.
On the same count and under the same terms, then `CC1OCC2(CCN(c3cnc(Sc4ccnc(N)c4Cl)c(N)n3)CC2)C1N` (configuration not stated) + COc1cc2nc(C)nc(NC(C)c3cc(N)cc(C(F)(F)F)c3)c2cc1OC1CCOC1, with 57.2%; and `CC(C)NCC(C(=O)N1CCN(c2ncnc3c2C(C)CC3O)CC1)c1ccc(Cl)cc1` (configuration not stated) + CC1OCC2(CCN(c3cnc(Sc4ccnc(N)c4Cl)c(N)n3)CC2)C1N, with 70.3%; and `COc1cc2nccc(Oc3ccc(NC(=O)C4(C(=O)Nc5ccc(F)cc5)CC4)cc3)c2cc1OC` + C=CC(=O)N1CCN(c2nc(=O)n(-c3c(C)ccnc3C(C)C)c3nc(-c4c(O)cccc4F)c(F)cc23)C(C)C1, with 89.8%.

Still in this test, the particulars now being: second compound 3.16 µM; first compound 3.16 µM; stronger effect = lower value; spheroids with HUVEC and MSC.
For the compound `COc1cc(Nc2ncc3c(n2)-c2ccc(Cl)cc2C(c2c(F)cccc2OC)=NC3)ccc1C(=O)O` + COc1cc2nc(C)nc(NC(C)c3cc(N)cc(C(F)(F)F)c3)c2cc1OC1CCOC1, the viability, T/C is 75.9%.
Consider `CC1OCC2(CCN(c3cnc(Sc4ccnc(N)c4Cl)c(N)n3)CC2)C1N` (configuration not stated) + COc1cc2nc(C)nc(NC(C)c3cc(N)cc(C(F)(F)F)c3)c2cc1OC1CCOC1, for which the viability, T/C is 61.3%.
As to `CC(C)NCC(C(=O)N1CCN(c2ncnc3c2C(C)CC3O)CC1)c1ccc(Cl)cc1` (configuration not stated) + CC1OCC2(CCN(c3cnc(Sc4ccnc(N)c4Cl)c(N)n3)CC2)C1N, the viability, T/C is 63.2%.
Take `COc1cc2nccc(Oc3ccc(NC(=O)C4(C(=O)Nc5ccc(F)cc5)CC4)cc3)c2cc1OC` + C=CC(=O)N1CCN(c2nc(=O)n(-c3c(C)ccnc3C(C)C)c3nc(-c4c(O)cccc4F)c(F)cc23)C(C)C1: the viability, T/C was 51.5%.

The same test, now with this note: second compound 3.16 µM; first compound 10 µM; stronger effect = lower value; spheroids with HUVEC and MSC.
On to `COc1cc(Nc2ncc3c(n2)-c2ccc(Cl)cc2C(c2c(F)cccc2OC)=NC3)ccc1C(=O)O` + COc1cc2nc(C)nc(NC(C)c3cc(N)cc(C(F)(F)F)c3)c2cc1OC1CCOC1, for which the viability, T/C is 64.6%.
Same read-out and setting: then `CC1OCC2(CCN(c3cnc(Sc4ccnc(N)c4Cl)c(N)n3)CC2)C1N` (configuration not stated) + COc1cc2nc(C)nc(NC(C)c3cc(N)cc(C(F)(F)F)c3)c2cc1OC1CCOC1, with 40.1%; and `CC(C)NCC(C(=O)N1CCN(c2ncnc3c2C(C)CC3O)CC1)c1ccc(Cl)cc1` (configuration not stated) + CC1OCC2(CCN(c3cnc(Sc4ccnc(N)c4Cl)c(N)n3)CC2)C1N, with 56.5%; and `COc1cc2nccc(Oc3ccc(NC(=O)C4(C(=O)Nc5ccc(F)cc5)CC4)cc3)c2cc1OC` + C=CC(=O)N1CCN(c2nc(=O)n(-c3c(C)ccnc3C(C)C)c3nc(-c4c(O)cccc4F)c(F)cc23)C(C)C1, with 62.1%.

Staying with this test, now noted: second compound 10 µM; first compound 0.0316 µM; stronger effect = lower value; spheroids with HUVEC and MSC.
Consider `COc1cc(Nc2ncc3c(n2)-c2ccc(Cl)cc2C(c2c(F)cccc2OC)=NC3)ccc1C(=O)O` + COc1cc2nc(C)nc(NC(C)c3cc(N)cc(C(F)(F)F)c3)c2cc1OC1CCOC1, for which the viability, T/C was 27.6%.
Same read-out and setting: then `CC1OCC2(CCN(c3cnc(Sc4ccnc(N)c4Cl)c(N)n3)CC2)C1N` (configuration not stated) + COc1cc2nc(C)nc(NC(C)c3cc(N)cc(C(F)(F)F)c3)c2cc1OC1CCOC1, with 13.6%; and `CC(C)NCC(C(=O)N1CCN(c2ncnc3c2C(C)CC3O)CC1)c1ccc(Cl)cc1` (configuration not stated) + CC1OCC2(CCN(c3cnc(Sc4ccnc(N)c4Cl)c(N)n3)CC2)C1N, with 71.3%; and `COc1cc2nccc(Oc3ccc(NC(=O)C4(C(=O)Nc5ccc(F)cc5)CC4)cc3)c2cc1OC` + C=CC(=O)N1CCN(c2nc(=O)n(-c3c(C)ccnc3C(C)C)c3nc(-c4c(O)cccc4F)c(F)cc23)C(C)C1, with 99.4%.

Still in this test, the particulars now being: second compound 10 µM; first compound 0.1 µM; stronger effect = lower value; spheroids with HUVEC and MSC.
As to `COc1cc(Nc2ncc3c(n2)-c2ccc(Cl)cc2C(c2c(F)cccc2OC)=NC3)ccc1C(=O)O` + COc1cc2nc(C)nc(NC(C)c3cc(N)cc(C(F)(F)F)c3)c2cc1OC1CCOC1, the viability, T/C was 15.6%.
On the same count and under the same terms, then `CC1OCC2(CCN(c3cnc(Sc4ccnc(N)c4Cl)c(N)n3)CC2)C1N` (configuration not stated) + COc1cc2nc(C)nc(NC(C)c3cc(N)cc(C(F)(F)F)c3)c2cc1OC1CCOC1, with 12.1%.
On the same count and under the same terms, then `CC(C)NCC(C(=O)N1CCN(c2ncnc3c2C(C)CC3O)CC1)c1ccc(Cl)cc1` (configuration not stated) + CC1OCC2(CCN(c3cnc(Sc4ccnc(N)c4Cl)c(N)n3)CC2)C1N, with 68.3%.
Still for that read-out and setting: with `COc1cc2nccc(Oc3ccc(NC(=O)C4(C(=O)Nc5ccc(F)cc5)CC4)cc3)c2cc1OC` + C=CC(=O)N1CCN(c2nc(=O)n(-c3c(C)ccnc3C(C)C)c3nc(-c4c(O)cccc4F)c(F)cc23)C(C)C1 the figure was 96.4%.

Still in this test, the particulars now being: second compound 10 µM; first compound 0.316 µM; stronger effect = lower value; spheroids with HUVEC and MSC.
Turning to `COc1cc(Nc2ncc3c(n2)-c2ccc(Cl)cc2C(c2c(F)cccc2OC)=NC3)ccc1C(=O)O` + COc1cc2nc(C)nc(NC(C)c3cc(N)cc(C(F)(F)F)c3)c2cc1OC1CCOC1, the viability, T/C was 13.9%.
For `CC1OCC2(CCN(c3cnc(Sc4ccnc(N)c4Cl)c(N)n3)CC2)C1N` (configuration not stated) + COc1cc2nc(C)nc(NC(C)c3cc(N)cc(C(F)(F)F)c3)c2cc1OC1CCOC1, the viability, T/C is 12.8%.
On the same count and under the same terms, then `CC(C)NCC(C(=O)N1CCN(c2ncnc3c2C(C)CC3O)CC1)c1ccc(Cl)cc1` (configuration not stated) + CC1OCC2(CCN(c3cnc(Sc4ccnc(N)c4Cl)c(N)n3)CC2)C1N, with 62.3%; and `COc1cc2nccc(Oc3ccc(NC(=O)C4(C(=O)Nc5ccc(F)cc5)CC4)cc3)c2cc1OC` + C=CC(=O)N1CCN(c2nc(=O)n(-c3c(C)ccnc3C(C)C)c3nc(-c4c(O)cccc4F)c(F)cc23)C(C)C1, with 85.7%.

Staying with this test, now noted: second compound 10 µM; first compound 1 µM; stronger effect = lower value; spheroids with HUVEC and MSC.
In the case of `COc1cc(Nc2ncc3c(n2)-c2ccc(Cl)cc2C(c2c(F)cccc2OC)=NC3)ccc1C(=O)O` + COc1cc2nc(C)nc(NC(C)c3cc(N)cc(C(F)(F)F)c3)c2cc1OC1CCOC1, the viability, T/C was 15.7%.
`CC1OCC2(CCN(c3cnc(Sc4ccnc(N)c4Cl)c(N)n3)CC2)C1N` (configuration not stated) + COc1cc2nc(C)nc(NC(C)c3cc(N)cc(C(F)(F)F)c3)c2cc1OC1CCOC1: the viability, T/C is 8.09%.
Take `CC(C)NCC(C(=O)N1CCN(c2ncnc3c2C(C)CC3O)CC1)c1ccc(Cl)cc1` (configuration not stated) + CC1OCC2(CCN(c3cnc(Sc4ccnc(N)c4Cl)c(N)n3)CC2)C1N: the viability, T/C was 54.9%.
The same measure, in the same setting: then `COc1cc2nccc(Oc3ccc(NC(=O)C4(C(=O)Nc5ccc(F)cc5)CC4)cc3)c2cc1OC` + C=CC(=O)N1CCN(c2nc(=O)n(-c3c(C)ccnc3C(C)C)c3nc(-c4c(O)cccc4F)c(F)cc23)C(C)C1, with 69.3%.

Staying with this test, now noted: second compound 10 µM; first compound 3.16 µM; stronger effect = lower value; spheroids with HUVEC and MSC.
`COc1cc(Nc2ncc3c(n2)-c2ccc(Cl)cc2C(c2c(F)cccc2OC)=NC3)ccc1C(=O)O` + COc1cc2nc(C)nc(NC(C)c3cc(N)cc(C(F)(F)F)c3)c2cc1OC1CCOC1: the viability, T/C was 15.5%.
Same read-out and setting: with `CC1OCC2(CCN(c3cnc(Sc4ccnc(N)c4Cl)c(N)n3)CC2)C1N` (configuration not stated) + COc1cc2nc(C)nc(NC(C)c3cc(N)cc(C(F)(F)F)c3)c2cc1OC1CCOC1 the figure was 8.5%; with `CC(C)NCC(C(=O)N1CCN(c2ncnc3c2C(C)CC3O)CC1)c1ccc(Cl)cc1` (configuration not stated) + CC1OCC2(CCN(c3cnc(Sc4ccnc(N)c4Cl)c(N)n3)CC2)C1N, 56.4%.
Still for that read-out and setting: with `COc1cc2nccc(Oc3ccc(NC(=O)C4(C(=O)Nc5ccc(F)cc5)CC4)cc3)c2cc1OC` + C=CC(=O)N1CCN(c2nc(=O)n(-c3c(C)ccnc3C(C)C)c3nc(-c4c(O)cccc4F)c(F)cc23)C(C)C1 the figure was 31.9%.

Still in this test, the particulars now being: second compound 10 µM; first compound 10 µM; stronger effect = lower value; spheroids with HUVEC and MSC.
With `COc1cc(Nc2ncc3c(n2)-c2ccc(Cl)cc2C(c2c(F)cccc2OC)=NC3)ccc1C(=O)O` + COc1cc2nc(C)nc(NC(C)c3cc(N)cc(C(F)(F)F)c3)c2cc1OC1CCOC1, the viability, T/C is 7.94%.
The same measure, in the same setting: then `CC1OCC2(CCN(c3cnc(Sc4ccnc(N)c4Cl)c(N)n3)CC2)C1N` (configuration not stated) + COc1cc2nc(C)nc(NC(C)c3cc(N)cc(C(F)(F)F)c3)c2cc1OC1CCOC1, with 5.15%.
Same read-out and setting: with `CC(C)NCC(C(=O)N1CCN(c2ncnc3c2C(C)CC3O)CC1)c1ccc(Cl)cc1` (configuration not stated) + CC1OCC2(CCN(c3cnc(Sc4ccnc(N)c4Cl)c(N)n3)CC2)C1N the figure was 46.3%; with `COc1cc2nccc(Oc3ccc(NC(=O)C4(C(=O)Nc5ccc(F)cc5)CC4)cc3)c2cc1OC` + C=CC(=O)N1CCN(c2nc(=O)n(-c3c(C)ccnc3C(C)C)c3nc(-c4c(O)cccc4F)c(F)cc23)C(C)C1, 41.1%.

By viability, T/C is commonly meant the result in the treated group divided by that in the control group, in per cent.
